Data reported in article PMC11124394, “Novel Combretastatin A-4 Analogs—Design, Synthesis, and Antiproliferative and Anti-Tubulin Activity” (Molecules, 2024).
Read-outs that look alike come from different tables or passages of the source.

How the values were obtained:
Type in all cases: cell-based
[1] = system: MDA (breast cancer) cells; experiment: SRB cytotoxicity assay, MDA; conditions: Homo sapiens, read-out: Cytotoxicity IC50, MDA
Description: (§1) The antiproliferative activity was tested on human primary (SW480) and metastatic (SW620) colon cancer, human prostate cancer (PC3), human liver cancer (HepG2), human breast cancer (MDA), human lung cancer (A549), and human immortalized keratinocyte (HaCaT) cell lines obtained from the American Type Culture Collection (ATCC, Rockville, MD, USA). The cells were cultured in EMEM (SW480 and SW620), RPMI 1640 (PC3) or DMEM High Glucose (HepG2, MDA, A549, and HaCaT) with stable glutamine supplemented with 10% heat-inactivated fetal bovine serum (FBS), penicillin (100 U/mL), and streptomycin (100 µg/mL) in 37 °C and 5% CO2/95% air humified incubator. The cells were grown until 80–90% confluence and then were harvested with 0.25% trypsin and used for the experiments. All the reagents for the cell culture were provided by VWR Chemicals.
(§2) Cytotoxicity was tested with the sulforhodamine B (SRB) assay according to the National Cancer Institute protocol with slight modifications. Briefly, cells were seeded on a 96-well plate (5 × 10^3 cells per well). After 24 h incubation, zero-time control cells were fixed with TCA (final concentration 5%) for 1 h at 4 °C. […] The untreated cells were used as the control. After incubation, the cells were fixed with TCA (final concentration 5%) for 1 h at 4 °C, gently washed 4 times with tap water, and left for drying. The dried fixed cells were incubated with SRB solution (0.05% SRB in 1% acetic acid) for 30 min rt, washed four times with 1% acetic acid, and left for drying. The dried cells were dissolved in 10 mM Tris-base solution (pH 10.5) and the absorbance was read at 510 nm.
(§3) The cell viability was presented as a percent of SRB reduction in the treated cells versus that in control cells. The mean absorbance for control cells was assumed as 100%. No-cell control (blank well) absorbance was assumed as 0%, unless the compound was cytostatic, then 0% referred to zero-time control. The IC50 values were calculated using the GraphPad Prism 10.1.2 (324) (USA) software. The most cytotoxic compounds (8 and 20) were selected for further in vitro experiments.

[2] = system: SW620 (metastatic colon cancer) cells; experiment: SRB cytotoxicity assay, SW620; conditions: Homo sapiens, read-out: Cytotoxicity IC50, SW620
Description: as §1, §2, §3

[3] = system: A549 (lung cancer) cells; experiment: SRB cytotoxicity assay, A549; conditions: Homo sapiens, read-out: Cytotoxicity IC50, A549
Description: as §1, §2, §3

[4] = system: HepG2 (liver cancer) cells; experiment: SRB cytotoxicity assay, HepG2; conditions: Homo sapiens, read-out: Cytotoxicity IC50, HepG2
Description: as §1, §2, §3

[5] = SRB cytotoxicity assay, HaCaT; conditions: human, 48 h culture, mean ± SD, at least three independent experiments, compounds marked * : low solubility, real values might be lower
Description: as §1, §2, §3

[6] = system: PC3 (prostate cancer) cells; experiment: SRB cytotoxicity assay, PC3; conditions: Homo sapiens, read-out: Cytotoxicity IC50, PC3
Description: as §1, §2, §3

[7] = system: SW480 (primary colon cancer) cells; experiment: SRB cytotoxicity assay, SW480; conditions: Homo sapiens, read-out: Cytotoxicity IC50, SW480
Description: as §1, §2, §3

[8] = SRB assay, 48 h culture, mean ± SD, at least three independent experiments, compounds marked * : low solubility, real values might be lower
[9] = SW-620, SRB assay, 48 h culture, mean ± SD, at least three independent experiments, compounds marked * : low solubility, real values might be lower
[10] = A549, SRB assay, 48 h culture, mean ± SD, at least three independent experiments, compounds marked * : low solubility, real values might be lower
[11] = HepG2, SRB assay, 48 h culture, mean ± SD, at least three independent experiments, compounds marked * : low solubility, real values might be lower
[12] = HaCaT immortalized keratinocyte cells (non-tumor cell line)
[13] = SW480, SRB assay, 48 h culture, mean ± SD, at least three independent experiments, compounds marked * : low solubility, real values might be lower

SMILES | IC50 [1, 8] [µM] | IC50 [2, 9] [µM] | IC50 [3, 10] [µM] | IC50 [4, 11] [µM] | IC50 at 48 h [5, 12] [µM] | IC50 [6, 8] [µM] | IC50 [7, 13] [µM] | IC50 ([1]; 48 h) [µM] | IC50 ([2]; SW-620, 48 h) [µM] | IC50 ([3]; A549, 48 h) [µM] | IC50 ([4]; HepG2, 48 h) [µM] | IC50 at 48 h ([5]; non-tumor cell line) [µM] | IC50 ([6]; 48 h) [µM] | IC50 ([7]; SW480, 48 h) [µM]
COc1ccc(/C(=C\c2cc(OC)c(OC)c(OC)c2)C(=O)NCc2ccc(Cl)cc2)cc1Br [Compound 18] | 66.7 ± 6.4 | > 100 | 62.2 ± 8.6 | 89.6 ± 24.4 | > 100 | > 100 | > 100 |  |  |  |  |  |  | 
COc1ccc(/C(=C\c2cc(OC)c(OC)c(OC)c2)C(=O)N(Cc2ccccc2)Cc2ccccc2)cc1Br [Compound 22] | > 100 | > 100 | > 100 | > 100 | > 100 | > 100 | > 100 |  |  |  |  |  |  | 
C#CCNC(=O)/C(=C/c1cc(OC)c(OC)c(OC)c1)c1ccc(OC)c(Br)c1 [Compound 12] | > 100 | > 100 | > 100 | > 100 | > 100 | > 100 | > 100 |  |  |  |  |  |  | 
COc1ccc(/C(=C\c2cc(OC)c(OC)c(OC)c2)C(=O)OCc2ccccc2)cc1Br [Compound 7] | > 100 | > 100 | > 100 | > 100 | > 100 | > 100 | > 100 |  |  |  |  |  |  | 
CCOC(=O)/C(=C/c1cc(OC)c(OC)c(OC)c1)c1ccc(OC)c(Br)c1 [Compound 5] | 45.2 ± 5.5 | 57.5 ± 3.9 | 46.6 ± 12.1 | 42.1 ± 10.2 | 45 ± 7.2 | 43.2 ± 10.2 | 73.6 ± 8.4 |  |  |  |  |  |  | 
CCCCNC(=O)/C(=C/c1cc(OC)c(OC)c(OC)c1)c1ccc(OC)c(Br)c1 [Compound 11] | 61.4 ± 21.8 | 50.8 ± 14.5 | 65.1 ± 17.3 | 50.5 ± 17.5 | 58.6 ± 22.2 | 67.2 ± 18.6 | 50.2 ± 11.2 |  |  |  |  |  |  | 
COc1ccc(/C(=C\c2cc(OC)c(OC)c(OC)c2)C(=O)NCc2ccccc2)cc1Br [Compound 13] | 59.8 ± 18.8 | 62.4 ± 3.1 | 82.1 ± 13.9 | 56.2 ± 22.2 | 68.5 ± 4.8 | 55.8 ± 23.7 | 59.8 ± 23 |  |  |  |  |  |  | 
COc1ccc(/C(=C\c2cc(OC)c(OC)c(OC)c2)C(=O)NCc2cccc(Cl)c2)cc1Br [Compound 17] | > 100 | > 100 | > 100 | > 100 | > 100 | > 100 | > 100 |  |  |  |  |  |  | 
COc1cc2c(c(OC)c1OC)-c1ccc(OC)c(=O)cc1[C@@H](NC(C)=O)CC2 [colchicine, reference compound] |  |  |  |  |  |  |  | 0.11 ± 0.015 | 0.13 ± 0.089 | 0.094 ± 0.009 | 0.107 ± 0.025 | 0.104 ± 0.012 | 0.118 ± 0.047 | 0.166 ± 0.065
COc1ccc(/C(=C\c2cc(OC)c(OC)c(OC)c2)C(=O)Nc2ccccc2)cc1Br [Compound 14] | > 100 | > 100 | > 100 | > 100 | > 100 | > 100 | > 100 |  |  |  |  |  |  | 
C#CCOC(=O)/C(=C/c1cc(OC)c(OC)c(OC)c1)c1ccc(OC)c(Br)c1 [Compound 6] | > 100 | > 100 | > 100 | > 100 | > 100 | > 100 | > 100 |  |  |  |  |  |  | 
COc1ccc(/C(=C\c2cc(OC)c(OC)c(OC)c2)C(=O)NCc2ccccc2[N+](=O)[O-])cc1Br [Compound 15] | > 100 | > 100 | > 100 | > 100 | > 100 | > 100 | > 100 |  |  |  |  |  |  | 
CNC(=O)/C(=C/c1cc(OC)c(OC)c(OC)c1)c1ccc(OC)c(Br)c1 [Compound 10] | 55.5 ± 20.3 | 46 ± 11.4 | 49.3 ± 16.3 | 50.5 ± 10.5 | 55.3 ± 17 | 44.9 ± 12.1 | 52.2 ± 17.9 |  |  |  |  |  |  | 
COC(=O)/C(=C/c1cc(OC)c(OC)c(OC)c1)c1ccc(OC)c(Br)c1 [Compound 4] | 55.2 ± 17.3 | 61.8 ± 11.4 | 53 ± 10.8 | 63.7 ± 12.6 | 68.3 ± 19.6 | 65.9 ± 16.1 | 57.6 ± 9.4 |  |  |  |  |  |  | 
COc1ccc(/C(=C\c2cc(OC)c(OC)c(OC)c2)C(=O)N2CCOCC2)cc1Br [Compound 21] | > 100 | > 100 | > 100 | > 100 | > 100 | > 100 | > 100 |  |  |  |  |  |  | 
COc1cc([C@@H]2c3cc4c(cc3[C@H](O)[C@H]3COC(=O)[C@H]23)OCO4)cc(OC)c1OC [podophyllotoxin, reference compound] |  |  |  |  |  |  |  | 0.0293 ± 0.0028 | 0.0292 ± 0.0078 | 0.0247 ± 0.0039 | 0.0258 ± 0.0056 | 0.0316 ± 0.004 | 0.0129 ± 0.0015 | 0.0444 ± 0.0022
COc1ccc(/C(=C\c2cc(OC)c(OC)c(OC)c2)C(=O)NCc2ccccc2Cl)cc1Br [Compound 16] | 99.8 ± 3.9 | > 100 | 92.8 ± 7.7 | > 100 | > 100 | > 100 | > 100 |  |  |  |  |  |  | 
